Results on four compounds are retold here after ChEMBL document CHEMBL5365511, “Novel Compounds as TEAD Inhibitors for Treating Cancer” (ACS Med Chem Lett, 2023).

Transcriptional enhancer factor TEF-3, sequence (Q15561 whole entry): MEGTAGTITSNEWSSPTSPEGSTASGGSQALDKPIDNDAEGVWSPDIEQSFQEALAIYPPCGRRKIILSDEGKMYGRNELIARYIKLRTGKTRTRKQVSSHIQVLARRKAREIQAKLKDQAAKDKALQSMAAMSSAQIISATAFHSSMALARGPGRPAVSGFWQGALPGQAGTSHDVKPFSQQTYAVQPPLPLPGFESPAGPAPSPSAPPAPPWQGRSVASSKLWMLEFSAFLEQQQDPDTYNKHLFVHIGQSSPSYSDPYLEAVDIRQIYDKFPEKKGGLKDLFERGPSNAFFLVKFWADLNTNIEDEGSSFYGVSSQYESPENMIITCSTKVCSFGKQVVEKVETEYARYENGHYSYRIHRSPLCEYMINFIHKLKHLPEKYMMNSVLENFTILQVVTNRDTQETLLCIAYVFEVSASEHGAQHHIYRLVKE

One test deals with Transcriptional enhancer factor TEF-5 (Homo sapiens, UniProt Q99594). As to the kind of experiment: Displacement of biotinylated lipid pocket probes from His-tagged TEAD3 (unknown origin) preincubated for 4 hrs followed by lipid pocket probe addition and measured after 60 mins by TR-FRET assay.
Transcriptional enhancer factor TEF-5, sequence (Q99594 whole entry): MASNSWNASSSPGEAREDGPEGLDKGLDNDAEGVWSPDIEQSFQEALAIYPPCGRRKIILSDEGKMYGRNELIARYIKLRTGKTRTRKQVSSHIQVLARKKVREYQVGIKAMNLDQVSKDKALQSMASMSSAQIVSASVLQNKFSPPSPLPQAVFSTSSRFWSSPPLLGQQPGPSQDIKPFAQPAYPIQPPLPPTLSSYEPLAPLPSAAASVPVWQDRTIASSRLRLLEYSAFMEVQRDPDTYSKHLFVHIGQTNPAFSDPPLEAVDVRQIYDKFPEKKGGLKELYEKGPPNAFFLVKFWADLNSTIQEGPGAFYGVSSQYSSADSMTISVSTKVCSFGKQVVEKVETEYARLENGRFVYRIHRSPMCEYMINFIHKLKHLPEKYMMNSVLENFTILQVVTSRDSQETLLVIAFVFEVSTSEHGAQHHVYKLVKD
In the case of `C=CC(=O)N(C)Cc1cc(-c2ccc(OC(F)(F)F)cc2)c2c(c1CO)CCO2`, the IC50 came out at 7 nM.
On the same count and under the same terms, the result for `C=CC(=O)N1CC(c2nc(-c3ccc(OC(F)(F)F)cc3)c3ncsc3n2)C1` reads 3 nM.

For a further test, the target named is Transcriptional enhancer factor TEF-1 (Homo sapiens, UniProt P28347). As to the kind of experiment: Displacement of biotinylated lipid pocket probes from His-tagged TEAD1 (unknown origin) preincubated for 4 hrs followed by lipid pocket probe addition and measured after 60 mins by TR-FRET assay. On the technique in general: Time-resolved FRET reads energy transfer from a long-lived donor to a nearby acceptor.
Transcriptional enhancer factor TEF-1, sequence (P28347 whole entry): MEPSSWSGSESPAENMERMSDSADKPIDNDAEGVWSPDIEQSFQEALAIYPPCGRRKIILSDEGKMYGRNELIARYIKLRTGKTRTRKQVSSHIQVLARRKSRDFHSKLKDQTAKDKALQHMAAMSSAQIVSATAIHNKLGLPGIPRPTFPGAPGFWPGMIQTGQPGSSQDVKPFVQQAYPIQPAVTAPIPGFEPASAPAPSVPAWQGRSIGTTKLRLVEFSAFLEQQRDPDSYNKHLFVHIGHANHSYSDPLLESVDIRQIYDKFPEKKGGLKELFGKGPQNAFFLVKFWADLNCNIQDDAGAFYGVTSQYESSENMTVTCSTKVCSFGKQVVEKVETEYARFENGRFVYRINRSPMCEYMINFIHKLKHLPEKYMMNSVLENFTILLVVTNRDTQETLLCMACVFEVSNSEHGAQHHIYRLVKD
As for `C=CC(=O)NCc1cc(-c2ccc(OC(F)(F)F)cc2)c2ncn(C)c2c1C#CCO`, the IC50 came to 6 nM.
With `C=CC(=O)N(C)Cc1cc(-c2ccc(OC(F)(F)F)cc2)c2c(c1CO)CCO2`, the IC50 stood at 4 nM.
Still for that read-out and setting: under `C=CC(=O)N1CC(c2nc(-c3ccc(OC(F)(F)F)cc3)c3ncsc3n2)C1` stands 3 nM.

In a further test the target is Transcriptional enhancer factor TEF-4 (Homo sapiens, UniProt Q15562). As to the kind of experiment: Displacement of biotinylated lipid pocket probes from His-tagged TEAD2 (unknown origin) preincubated for 4 hrs followed by lipid pocket probe addition and measured after 60 mins by TR-FRET assay.
Transcriptional enhancer factor TEF-4, sequence (Q15562 whole entry): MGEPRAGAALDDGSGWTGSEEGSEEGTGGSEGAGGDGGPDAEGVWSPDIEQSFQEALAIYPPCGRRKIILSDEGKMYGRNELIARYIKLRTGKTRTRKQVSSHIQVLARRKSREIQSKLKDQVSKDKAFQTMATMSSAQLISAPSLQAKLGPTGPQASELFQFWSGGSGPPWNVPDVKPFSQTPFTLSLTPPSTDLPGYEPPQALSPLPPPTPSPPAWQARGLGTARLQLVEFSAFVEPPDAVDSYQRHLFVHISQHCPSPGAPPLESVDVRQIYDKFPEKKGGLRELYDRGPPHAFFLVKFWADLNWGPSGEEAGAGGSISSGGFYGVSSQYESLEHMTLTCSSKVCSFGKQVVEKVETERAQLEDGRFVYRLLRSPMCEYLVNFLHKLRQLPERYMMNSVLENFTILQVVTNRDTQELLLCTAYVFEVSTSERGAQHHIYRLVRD
As for `C=CC(=O)N(C)Cc1cc(-c2ccc(OC(F)(F)F)cc2)c2c(c1CO)CCO2`, the IC50 stood at 6 nM.
Same read-out and setting: the result for `C=CC(=O)N1CC(c2nc(-c3ccc(OC(F)(F)F)cc3)c3ncsc3n2)C1` reads 4 nM; that for `Cn1cnc2c(-c3ccc(OC(F)(F)F)cc3)nc(C3CN(C(=O)C4=CCC4)C3)nc21`, 4 nM.

The next test addresses Transcriptional enhancer factor TEF-3 (Homo sapiens, UniProt Q15561). Put plainly: Displacement of biotinylated lipid pocket probes from His-tagged TEAD4 (unknown origin) preincubated for 4 hrs followed by lipid pocket probe addition and measured after 60 mins by TR-FRET assay.
Consider `C=CC(=O)NCc1cc(-c2ccc(OC(F)(F)F)cc2)c2ncn(C)c2c1C#CCO`, for which the IC50 is 3 nM.
On the same count and under the same terms, the result for `C=CC(=O)N(C)Cc1cc(-c2ccc(OC(F)(F)F)cc2)c2c(c1CO)CCO2` reads 3 nM; that for `C=CC(=O)N1CC(c2nc(-c3ccc(OC(F)(F)F)cc3)c3ncsc3n2)C1`, 2 nM.
Same read-out and setting: the result for `Cn1cnc2c(-c3ccc(OC(F)(F)F)cc3)nc(C3CN(C(=O)C4=CCC4)C3)nc21` reads 2 nM.

What is called IC50 is the point on the concentration scale where inhibition reaches its midpoint.
